Here are results for 4 molecules from ChEMBL document CHEMBL5370570, “HIV-1 Integrase Inhibitor, Dihydroobionin B, and the Investigation of Its Extraordinary Specific Rotation” (J Nat Prod, 2023).

Activity calls are given as the source filed them. The calls are words filed in the database; no cut-off is given here.

Data set [1] addresses Human immunodeficiency virus type 1 integrase (Human immunodeficiency virus 1, UniProt Q7ZJM1). As to the kind of experiment: Inhibition of HIV-1 integrase expressed in HEK293T co-transfected with CS-II Luci vector incubated for 48 hrs by Bright-Glo luciferase assay. Format: cell-based.
Another data set has as its system Bipolaris oryzae. As to the kind of experiment: Antifungal activity against Bipolaris oryzae at 50 ug assessed as zone of inhibition incubated after 5 days at 25 degreeC by paper disk method. It counts as functional. As to conditions: for zone of inhibition at 50 µg/disc: 120 h, time 5 day, read-out: IZ.
Data set [2] in a line: Cytotoxicity against human HEK293T cells assessed as reduction in cell viability incubated for 48 hrs by WST assay. It counts as toxicity, cell-based, HEK-293T. As to conditions: read-out: LC50.

Human immunodeficiency virus type 1 integrase, sequence (Q7ZJM1 whole entry): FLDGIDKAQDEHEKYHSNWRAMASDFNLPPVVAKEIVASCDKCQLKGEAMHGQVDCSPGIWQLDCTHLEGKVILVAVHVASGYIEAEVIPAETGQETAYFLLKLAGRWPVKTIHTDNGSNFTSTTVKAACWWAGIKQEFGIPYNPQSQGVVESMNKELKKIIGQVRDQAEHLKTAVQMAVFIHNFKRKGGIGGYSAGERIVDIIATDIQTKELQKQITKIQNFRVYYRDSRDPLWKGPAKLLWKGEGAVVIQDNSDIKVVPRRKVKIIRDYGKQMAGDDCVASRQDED

Turning to `CCCC/C=C/c1c(OC)cc(=O)oc1C`, the IC50 (commonly the point on the concentration scale where inhibition reaches its midpoint) in data set [1] was 250 µM. Moreover, the zone of inhibition at 50 µg/disc with Bipolaris oryzae stood at 12 mm.

Consider `CCCCCc1cc(O)c(C)c(O)c1C=O`, for which 13 µM corresponded to half-maximal inhibition in data set [1] (IC50). The zone of inhibition at 50 µg/disc with Bipolaris oryzae stood at 12 mm.

On to `CCCCCCc1c(OC)cc(=O)oc1C`, for which the IC50 in data set [1] was 15 µM. The zone of inhibition at 50 µg/disc in the data set with Bipolaris oryzae is 12 mm.

Consider `CCCCCCC[C@H]1Cc2cc3c(c(O)c2CO1)C(=O)C(=O)C(OC)=C3`, for which the CC50 at 48 h in data set [2] was greater than 250 µM. The IC50 in data set [1] stood at 0.44 µM. In addition, the “inhibition zone (IZ)” value in the data set with Bipolaris oryzae (dose 50.0 µg, time 5.0 day) is “inactive”.
